Measured values published in PubChem BioAssay AID1996.
Values after ≈ are worked out from the molar mass of the structure shown.

Settings: buffer; pH 7.4; 200.0 µM

Compound | solubility kinetic [µg/mL]
COc1ccc2[nH]c(=O)c(CN(C(=O)c3cccnc3)c3cccc(C)c3)cc2c1 | 3.9 (≈ 9.76 µM)
CN(C)c1cc[n+](CC(=O)c2ccc(Br)cc2)cc1.[Cl-] | 52.8
Cc1cccc(-c2noc(-c3c(C)noc3C)n2)c1 | < 0.2
COCCNC(=O)c1cc2c(s1)-c1ccc(Cl)cc1SC2 | 4.5 (≈ 13.2 µM)
CCN(CC)c1c([N+](=O)[O-])c(=O)n(C)c2ccccc12 | 24.9 (≈ 90.4 µM)
Cc1cccc(NC(=O)CCN2CCC(C)CC2)c1 | > 39.1
CCCCOc1ccc(CC(=O)NO)cc1 | > 33.5
O=C(NC(=S)Nc1ccc(Cl)c(C(=O)O)c1)c1ccco1 | > 48.7
COc1ccc(NC(=O)c2ccccc2-c2ccccc2)c(C)c1 | 7.2 (≈ 22.7 µM)
COc1ccc(NC(=O)Cn2cc(C(=O)C3CC3)c3ccccc32)cc1 | 0.5 (≈ 1.44 µM)
COc1cc(C(=O)NCc2ccc3c(c2)OCO3)c([N+](=O)[O-])cc1OC | 38.3 (≈ 106 µM)
Cc1cccc[n+]1CC(=O)Nc1ccccc1.[Cl-] | 26.6
Cc1ccc(NC(=O)COc2ccccc2)cc1Cl | 2.4 (≈ 8.7 µM)
COC(c1ccccc1)(c1ccccc1)C(Oc1nccc(C)n1)C(=O)O (stereo not given) | 51 (≈ 140 µM)
COc1ccc(N2C(=O)CC(c3ccccc3)C2=O)cc1 (stereo not given) | 11.2 (≈ 39.8 µM)
CN(C)c1ccc(/C=C/C(=O)c2ccc3c(c2)OCO3)cc1 | 2.9 (≈ 9.82 µM)
O=C(COC(=O)c1ccccc1F)NC(=O)NC1CCCC1 | > 46.2
CC(=O)Nc1ccc(NC(=S)NC(=O)C2CCCC2)cc1 | > 45.8
C/C=C/C(=O)N(CC)c1ccccc1C | 17.7 (≈ 87.1 µM)
Br.CC(=O)c1cccc(Nc2nc(-c3ccccc3)cs2)c1 | 2.1
Oc1ccc2ccccc2c1CN1CCCC1 | 32 (≈ 141 µM)
Cc1ccc(NC(=O)COC(=O)c2ccc[n+]([O-])c2)c(Br)c1 | > 54.8

Compound | solubility kinetic [µg/mL]
CCOC(=O)CN1C(=O)C(=O)N(Cc2cccc(C)c2)C1=O | > 45.6
Br.CCC1CC(CSC(=N)N)OC1=O (stereo not given) | > 42.5
COc1cccc(S(=O)(=O)Nc2ccc3c(c2)OCCO3)c1 | > 48.2
O=C(NC(=S)Nc1cccc2cnccc12)c1ccccc1 | 1.2 (≈ 3.9 µM)
Cc1cc(=O)[nH]c(SCc2cccc3ccccc23)n1 | 23.5 (≈ 83.2 µM)
CS(=O)(=O)c1ccc(C(=O)OC2CCOC2=O)cc1[N+](=O)[O-] (stereo not given) | > 49.4
COc1ccc(NC(=O)c2ccc3nc(C)sc3c2)cc1 | 15.4 (≈ 51.6 µM)
CN(C(=S)Nc1ccc(Oc2ccccc2)cc1)c1ccc(O)cc1 | > 52.6
O=S(=O)(c1ccc(F)c(F)c1F)N1CCN(c2ncnc3sccc23)CC1 | 2.5 (≈ 6.03 µM)
CCCC(=O)Nc1ccccc1NC(=O)c1ccc(OC(C)=O)cc1 | 47.5 (≈ 140 µM)
O=C(CN1C(=O)/C(=C2/SC(=S)N(CCS(=O)(=O)O)C2=O)c2ccccc21)Nc1cccc(C(F)(F)F)c1 | 5.9 (≈ 10.3 µM)
O=C(O)c1cc(S(=O)(=O)NCCN2CCNC2=O)ccc1O | > 49.4
CC(=O)Nc1ccc(N/C=C2/CCCC2=O)cc1 | > 36.6
CC(C)(C)C(=O)Nc1ccccc1-c1nc2ccccc2[nH]c1=O | > 48.2
Cn1c(CNc2ccc(O)cc2)nc2ccccc21 | 35 (≈ 138 µM)
CCOC(=O)Nc1ccc2c(c1)N(C(=O)CN(C)C)c1ccccc1CC2.Cl | 57.7
CCOc1ccc(S(=O)(=O)N2CCCCC2)cc1NC(=O)c1cccnc1OCC | 1.2 (≈ 2.77 µM)
Cc1onc(-c2c(F)cccc2Cl)c1C(O)c1ccc(F)cc1 (stereo not given) | > 50.4
O=c1[nH]c(-c2ccccc2)nc(-c2ccccc2)c1Cl | 2.4 (≈ 8.49 µM)
CCc1ccc(N2CN(Cc3cccnc3)CNC2=S)cc1 | > 46.9
O=C(Nc1nccs1)c1c(O)c2c([nH]c1=O)CCCC2 | 0.9 (≈ 3.09 µM)
CSc1nc(=S)n(-c2ccccc2)c(C)c1C(C)=O | 41.7 (≈ 144 µM)

Compound | solubility kinetic [µg/mL]
Cc1ccccc1OCC(=O)NCCNC(=O)c1ccccn1 | > 47
CCc1nonc1NC(=O)COc1cc(C)c(Cl)c(C)c1 | 0.3 (≈ 0.969 µM)
Cc1cc(C(=O)COC(=O)C(C)NC(N)=O)c(C)n1Cc1ccco1 (stereo not given) | 45.7 (≈ 132 µM)
COc1ccc(-c2nsc(SCC(=O)NCC3CCCO3)n2)cc1 (stereo not given) | > 54.8
CCOC(=O)c1sc(=S)n(-c2ccc(OC)cc2)c1N | 2 (≈ 6.44 µM)
NS(=O)(=O)c1cc(C(=O)Nc2ccc3c(c2)CCC3)ccc1Cl | 4.6 (≈ 13.1 µM)
COc1cc(NC(=O)c2ccc(N3CCCC3=O)cc2)cc(OC)c1 | 10.4 (≈ 30.6 µM)
O=C(Nc1nc2ccccc2[nH]1)Nc1ccccc1F | 3.3 (≈ 12.2 µM)
C=CCN1C(=O)/C(=C/c2cc(C)n(-c3cccnc3)c2C)C(=O)NC1=S | 12.9 (≈ 35.2 µM)
CC(=O)Oc1ccc(C(=O)NC(C)CCc2ccccc2)cc1 (stereo not given) | 42.2 (≈ 136 µM)
S=C(NCc1ccccc1)Nc1nccs1 | 3 (≈ 12 µM)
CCN(CC)S(=O)(=O)c1ccc2oc(Nc3ccccc3)nc2c1 | 6.4 (≈ 18.5 µM)
CC(=O)NC(c1ccc(C(C)C)cc1)c1ccc2cccnc2c1O (stereo not given) | 0.4 (≈ 1.2 µM)
Cn1c(N)c(C(=O)COC(=O)/C=C/c2cccc(Cl)c2)c(=O)n(C)c1=O | 3.3 (≈ 8.74 µM)
Cc1csc(NC(=O)c2ccc(N3CCCC3=O)cc2)n1 | 4.7 (≈ 15.6 µM)
CCCOc1ccccc1/C=C(\C#N)C(=O)Nc1cccnc1 | 6.8 (≈ 22.1 µM)
O=C(COc1ccc(Oc2ccccc2)cc1)NC1CCS(=O)(=O)C1 (stereo not given) | > 54.2
Cc1cc(C)c(NC(=O)c2cccc(NC(=O)c3ccco3)c2)c(C)c1 | 44.3 (≈ 127 µM)
COc1ccccc1NC(=O)CCSc1nc(C)cc(C)n1 | 38.4 (≈ 121 µM)
O=C1NC2(CCCCCC2)C(=O)N1Cc1ccccc1Br | 17.1 (≈ 48.7 µM)
O=[N+]([O-])c1ccc(COc2ncnc3ccccc23)cc1 | 27.7 (≈ 98.5 µM)
O=C1/C(=C/c2ccncc2)N=C2CCCCCN12 | 33.9 (≈ 140 µM)

Compound | solubility kinetic [µg/mL]
O=C(CSc1nccc(=O)[nH]1)Nc1ccc(Oc2ccccc2)cc1 | 11.5 (≈ 32.5 µM)
CCC(C)NC(=O)COc1ccc(OCc2ccccc2)cc1 (stereo not given) | 4.8 (≈ 15.3 µM)
O=S(=O)(Nc1ccccc1Br)c1cccs1 | > 47.7
CC(NC(=S)Nc1ccccc1C(F)(F)F)C1CC2CCC1C2 (stereo not given) | 2.1 (≈ 6.13 µM)
O=C(NC(=S)Nc1cccnc1)c1cccc(Br)c1 | 8.1 (≈ 24.1 µM)
Cc1[nH]c2ccccc2c1C(C[N+](=O)[O-])c1cccc(O)c1 (stereo not given) | 40.1 (≈ 135 µM)
CN(Cc1cccnc1)C(=O)CCCc1c[nH]c2ccccc12 | 44.5 (≈ 145 µM)
N#Cc1c(F)cccc1NCc1cccs1 | 1.3 (≈ 5.6 µM)
Cc1c(C=Nc2ccc(S(=O)(=O)CCO)cc2)c(O)[nH]c(=O)c1C#N | > 54.2
CCC1CCCCN1C(=O)CNCC1CCCO1.Cl (stereo not given) | 27.4
CCC(C(=O)N1CCN(c2ncccn2)CC1)c1ccccc1 (stereo not given) | 41.7 (≈ 134 µM)
CCOC(=O)c1c(C)n(C)c2cc(Br)c(OC)cc12 | < 0.7
CC(=O)Oc1ccc(-c2nc3ccccc3c(=O)o2)cc1 | 2.6 (≈ 9.24 µM)
COc1ccc(NC(=S)NCc2cccnc2)cc1OC | > 45.5
COc1cc(CN2CCCCCC2)cc(OC)c1O | 27 (≈ 102 µM)
CCN1CCC(NCCc2ccc(F)cc2)CC1 | 24.9 (≈ 99.5 µM)
COc1ccc(Nc2cc(Sc3ccc(OC)cc3)ncn2)cc1 | 4.6 (≈ 13.6 µM)
COc1ccc(CCNc2nc(C)cc(C)c2C#N)cc1OC | 32.7 (≈ 105 µM)
Nc1nc(NCCc2ccccc2)nc(NCCO)c1[N+](=O)[O-] | 46.3 (≈ 145 µM)
